From ChEMBL document CHEMBL1136743, “Design, synthesis, and biological evaluation of C9- and C2-substituted pyrazolo[4,3-e]-1,2,4-triazolo[1,5-c]pyrimidines as new A2A and A3 adenosine receptors antagonists” (J Med Chem, 2003) come the findings set out here.

Test [1] deals with T1, Adenosine receptor A3 (Homo sapiens, UniProt P0DMS8).
T1 sequence (P0DMS8 whole entry): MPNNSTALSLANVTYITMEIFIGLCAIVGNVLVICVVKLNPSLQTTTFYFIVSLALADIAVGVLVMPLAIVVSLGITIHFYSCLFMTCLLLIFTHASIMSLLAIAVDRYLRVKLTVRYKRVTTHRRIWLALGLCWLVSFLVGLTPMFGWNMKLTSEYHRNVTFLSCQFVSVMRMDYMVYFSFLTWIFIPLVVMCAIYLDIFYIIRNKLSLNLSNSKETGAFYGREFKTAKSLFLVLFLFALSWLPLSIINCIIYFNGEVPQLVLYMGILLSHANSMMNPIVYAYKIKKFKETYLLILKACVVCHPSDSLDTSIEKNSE
In words: biochemical.
Description: (§1) Displacement of [3H]- MRE 308F20 binding from human Adenosine A3 receptor expressed in CHO cells

Test [2] has as its target T2, Adenosine receptor A2a (Homo sapiens, UniProt P29274). In words: biochemical.
Test [3] addresses T2, Adenosine receptor A2a. Description: biochemical. This is another data set of the same source.
In test [4] the target is T3, Adenosine receptor A2b (Homo sapiens, UniProt P29275).
T3 sequence (P29275 whole entry): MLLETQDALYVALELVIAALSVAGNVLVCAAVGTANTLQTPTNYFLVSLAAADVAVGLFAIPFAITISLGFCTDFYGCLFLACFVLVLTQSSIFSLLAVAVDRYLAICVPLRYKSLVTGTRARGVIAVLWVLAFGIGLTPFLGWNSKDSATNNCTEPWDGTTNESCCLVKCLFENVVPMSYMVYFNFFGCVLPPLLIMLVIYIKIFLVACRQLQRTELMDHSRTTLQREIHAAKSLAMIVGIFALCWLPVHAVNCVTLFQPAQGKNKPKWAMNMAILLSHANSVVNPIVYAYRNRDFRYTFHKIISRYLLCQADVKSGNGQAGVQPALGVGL
Description: biochemical.
Description: (§2) Displacement of [3H]- DPCPX from human adenosine A2B receptor expressed in HEK293 cells

The target of another test is T4, Adenosine receptor A1 (Homo sapiens, UniProt P30542).
T4 sequence (P30542 whole entry): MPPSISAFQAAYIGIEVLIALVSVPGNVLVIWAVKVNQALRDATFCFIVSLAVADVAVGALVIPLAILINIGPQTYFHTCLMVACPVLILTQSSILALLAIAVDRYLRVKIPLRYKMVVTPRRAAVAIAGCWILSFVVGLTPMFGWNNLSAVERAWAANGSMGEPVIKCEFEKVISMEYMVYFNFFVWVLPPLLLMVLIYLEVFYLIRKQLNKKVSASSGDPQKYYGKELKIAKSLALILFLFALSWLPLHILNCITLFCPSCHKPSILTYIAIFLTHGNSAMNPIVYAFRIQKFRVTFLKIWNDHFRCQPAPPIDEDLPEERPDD
In words: biochemical.

Test [5] addresses T1, Adenosine receptor A3.
Test [6] deals with T3, Adenosine receptor A2b. Description: biochemical. The source holds these as a separate data set.
Description: as §2
Test [7] addresses T2, Adenosine receptor A2a.
Test [8] concerns the target T1, Adenosine receptor A3. The conditions noted are these: cho.
Description: as §1
Test [9] deals with T5, Adenosine receptor A2b (Rattus norvegicus, UniProt P29276).
T5 sequence (P29276 whole entry): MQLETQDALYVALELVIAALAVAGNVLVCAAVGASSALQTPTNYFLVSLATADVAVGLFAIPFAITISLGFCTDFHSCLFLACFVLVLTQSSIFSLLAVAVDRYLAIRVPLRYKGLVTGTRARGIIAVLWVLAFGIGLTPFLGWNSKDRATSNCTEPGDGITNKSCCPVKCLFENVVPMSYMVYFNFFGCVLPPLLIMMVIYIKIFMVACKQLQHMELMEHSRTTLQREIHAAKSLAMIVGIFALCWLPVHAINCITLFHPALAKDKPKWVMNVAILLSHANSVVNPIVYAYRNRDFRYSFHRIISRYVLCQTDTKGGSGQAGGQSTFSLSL

A value given as a limit tells only on which side of the number the result lay.

The Ki is the dissociation constant of the complex between target and ligand, obtained from inhibition or displacement. Low readings indicate tighter binding, high ones weaker binding. One may read the IC50 as the concentration that inhibits the measured activity by half.

T2 sequence (P29274 whole entry): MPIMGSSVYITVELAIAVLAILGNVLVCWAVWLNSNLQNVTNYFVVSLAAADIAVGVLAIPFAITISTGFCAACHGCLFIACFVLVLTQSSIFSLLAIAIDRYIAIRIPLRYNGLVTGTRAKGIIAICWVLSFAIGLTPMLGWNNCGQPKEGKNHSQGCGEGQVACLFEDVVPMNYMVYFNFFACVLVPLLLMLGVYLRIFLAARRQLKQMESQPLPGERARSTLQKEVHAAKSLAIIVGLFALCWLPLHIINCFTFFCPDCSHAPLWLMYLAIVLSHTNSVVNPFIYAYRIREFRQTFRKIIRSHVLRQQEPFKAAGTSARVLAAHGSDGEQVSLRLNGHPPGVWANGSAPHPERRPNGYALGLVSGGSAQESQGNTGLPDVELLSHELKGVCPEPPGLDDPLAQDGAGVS
Description for Adenosine receptor A1: Displacement of [3H]- DPCPX binding at human Adenosine A1 receptor expressed in CHO cells

Turning to `CSc1c2c(nc(N)n3nc(-c4ccco4)nc23)nn1CCCc1ccccc1`, on Adenosine receptor A3 [1], the Ki is more than 1000 nM.
In the case of `CCNc1c2c(nc(NC(=O)Nc3ccc(OC)cc3)n3nc(-c4ccco4)nc23)nn1C` [listing 1 of 2 here], the values for the Ki on Adenosine receptor A2a [2] and at Adenosine receptor A3 [1] were 21 nM and 14 nM, respectively.
In the case of `CN1CCN(Cc2ccc(-c3nc4c5cnn(CCc6ccccc6)c5nc(N)n4n3)o2)CC1`, the Ki on Adenosine receptor A2a [3], on Adenosine receptor A2b [4], at Adenosine receptor A1 and at Adenosine receptor A3 [1] was more than 1000 nM in each case.
On Adenosine receptor A3 [1], `CN1CCN(c2c3c(nc(N)n4nc(-c5ccco5)nc34)nn2C)CC1` [listing 1 of 2 here] registered a Ki of more than 1000 nM.
`CSc1c2c(nc(NC(=O)Cc3ccc4c(c3)OCO4)n3nc(-c4ccco4)nc23)nn1C` yielded an IC50 on Adenosine receptor A3 [5] of 466 nM.
For the molecule `COc1ccc(CC(=O)Nc2nc3nn(C)c(SC)c3c3nc(-c4ccco4)nn23)cc1`, the Ki on Adenosine receptor A3 [1] is more than 1000 nM.
In turn, `COc1ccc(NC(=O)Nc2nc3nn(C)c(SC)c3c3nc(-c4ccco4)nn23)cc1` registered an IC50 on Adenosine receptor A3 [5] of 813 nM.
On to `Nc1nc2c(cnn2CCc2ccccc2)c2nc(-c3ccc(CN4CCOCC4)o3)nn12`, for which the Ki on Adenosine receptor A2a [3], on Adenosine receptor A2b [4], at Adenosine receptor A1 and on Adenosine receptor A3 [1] was more than 1000 nM each time.
With `Nc1nc2c(cnn2CCc2ccccc2)c2nc(-c3ccccc3)nn12`, the Ki on Adenosine receptor A2b [6] was more than 1000 nM; on Adenosine receptor A2a [2], more than 1000 nM; on Adenosine receptor A1, 235 nM; on Adenosine receptor A3 [1], more than 1000 nM.
As for `CCCSc1c2c(nc(N)n3nc(-c4ccco4)nc23)nn1C`, the IC50 against Adenosine receptor A2a [7] stood at 14.8 nM; at Adenosine receptor A3 [5], 852 nM.
In the same order, the values of `CSc1c2c(nc(N)n3nc(-c4ccco4)nc23)nn1C` are 6.1 nM and 188 nM.
Consider `CSc1c2c(nc(N)n3nc(-c4ccc(CN5CCN(C)CC5)o4)nc23)nn1C`, for which the Ki on Adenosine receptor A2a [2], at Adenosine receptor A2b [4], on Adenosine receptor A1 and at Adenosine receptor A3 [1] was more than 1000 nM throughout.
On to `COc1ccc(NC(=O)Nc2nc3nn(C)c(N4CCN(C)CC4)c3c3nc(-c4ccco4)nn23)cc1`, for which the Ki at Adenosine receptor A2a [2] and on Adenosine receptor A3 [1] was more than 1000 nM in each case.
Consider `Cn1nc2nc(N)n3nc(-c4ccco4)nc3c2c1Nc1ccc(O)cc1`, for which the Ki at Adenosine receptor A2a [2] and at Adenosine receptor A2b [4] was more than 1000 nM each time.
`CSc1c2c(nc(NC(=O)Cc3ccc(CC(C)C)cc3)n3nc(-c4ccco4)nc23)nn1C`: the Ki at Adenosine receptor A2b [4] was 180 nM; on Adenosine receptor A3 [1], more than 1000 nM.
With `CCNc1c2c(nc(N)n3nc(-c4ccco4)nc23)nn1C`, at Adenosine receptor A3 [5], half-maximal inhibition (IC50) was put at 103 nM.
On Adenosine receptor A3 [8], `CN1CCN(c2c3c(nc(N)n4nc(-c5ccco5)nc34)nn2C)CC1` [listing 2 of 2 here] came in with a Ki of more than 1000 nM.
As to `CCNc1c2c(nc(NC(=O)Nc3ccc(OC)cc3)n3nc(-c4ccco4)nc23)nn1C` [listing 2 of 2 here], the IC50 against Adenosine receptor A2a [7] came to 61 nM; against Adenosine receptor A3 [5], 45 nM.
As to `Nc1nc2c(cnn2CCc2ccccc2)c2nc(-c3ccco3)nn12` [SCH-58261], at Adenosine receptor A2b [9], the Ki was more than 1000 nM.
